Counter-ions that a name gives are not always drawn. Like-named read-outs stand apart in the source and are kept apart here.
Key:
Escherichia coli 1269B = assay: In vitro MIC, Agar Well Diffusion Method; type: cell-based; conditions: read-out: In Vitro MIC
Protocol: (§1) In vitro antimicrobial activity was determined in BBL seed agar. Serial dilutions of the test compound were pipetted into agar wells (80 μL per well). […] For reference, see A. H. Litton, Antibiotics: Assessment of Antimicrobial Activity and Resistance, Academic Press, New York, pages 19-30 (1983).

[1] = test system: Pseudomonas aeruginosa 56; assay: In vitro MIC, Agar Well Diffusion Method; type: cell-based
Protocol: as §1

Serratia marcescens SM [2] = assay: In vitro MIC, Agar Well Diffusion Method; type: cell-based; conditions: read-out: In Vitro MIC
Protocol: as §1

[3] = test system: Klebsiella pneumoniae 369; assay: In vitro MIC, Agar Well Diffusion Method; type: cell-based
Protocol: as §1

[4] = test system: Enterobacter cloacae 2952B; assay: In vitro MIC, Agar Well Diffusion Method; type: cell-based; conditions: read-out: In Vitro MIC
Protocol: as §1

Pseudomonas aeruginosa B = assay: In vitro MIC, Agar Well Diffusion Method; type: cell-based; conditions: read-out: In Vitro MIC
Protocol: as §1

Micrococcus luteus PCl = assay: In vitro MIC, Agar Well Diffusion Method; type: cell-based; conditions: read-out: In Vitro MIC
Protocol: as §1

Proteus vulgaris 101N = assay: In vitro MIC, Agar Well Diffusion Method; type: cell-based; conditions: read-out: In Vitro MIC
Protocol: as §1

[5] = test system: Streptococcus faecium ATCC 8043; assay: In vitro MIC, Agar Well Diffusion Method; type: cell-based; conditions: Enterococcus faecium
Protocol: as §1

Streptococcus 82 = assay: In vitro MIC, Agar Well Diffusion Method; type: cell-based, Streptococcus aureus
Protocol: as §1

Serratia marcescens SM [6] = assay: In vitro MIC, Broth Dilution Method; type: cell-based; conditions: read-out: In Vitro MIC
Protocol: (§2) The diluted agents prepared in Mueller-Hinton broth were dispensed from a Dynatech MIC 2000 machine, in 100 microliter (μL) volumes into 96 well trays and used immediately or frozen at -10° to -70° C. until needed. Using a Dynatech inoculator and inoculum trays, 1.5 μL of a 10^-2 dilution of an overnight culture was added to each well of the tray. The tops of the trays were then sealed with tape, and the trays were incubated overnight at 37° C. and then examined with a viewer. The lowest concentration at which no growth was observed was considered to be the minimum inhibitory concentration (MIC).

[7] = test system: Pseudomonas aeruginosa ATCC 27853; assay: In vitro MIC, Broth Dilution Method; type: cell-based
Protocol: as §2

Enterobacter cloacae P99 = assay: In vitro MIC, Broth Dilution Method; type: cell-based; conditions: P99, read-out: In Vitro MIC
Protocol: as §2

[8] = test system: Proteus vulgaris ATCC 6380; assay: In vitro MIC, Broth Dilution Method; type: cell-based
Protocol: as §2

Escherichia coli TEM-1 = assay: In vitro MIC, Broth Dilution Method; type: cell-based; conditions: TEM1, read-out: In Vitro MIC
Protocol: as §2

[9] = test system: Streptococcus faecalis ATCC 29212; assay: In vitro MIC, Broth Dilution Method; type: cell-based; conditions: Enterococcus faecalis
Protocol: as §2

[10] = test system: Staphylococcus aureus Smith; assay: In vitro MIC, Broth Dilution Method; type: cell-based; conditions: read-out: In Vitro MIC
Protocol: as §2

[11] = test system: Enterobacter cloacae 5699; assay: In vitro MIC, Broth Dilution Method; type: cell-based
Protocol: as §2

Proteus mirabilis 2 = assay: In vitro MIC, Broth Dilution Method; type: cell-based
Protocol: as §2

[12] = test system: Citrobacter freundii BS-16; assay: In vitro MIC, Broth Dilution Method; type: cell-based
Protocol: as §2

Klebsiella pneumoniae A = assay: In vitro MIC, Broth Dilution Method; type: cell-based; conditions: read-out: In Vitro MIC
Protocol: as §2

[13] = test system: Staphylococcus aureus ATCC 29213; assay: In vitro MIC, Broth Dilution Method; type: cell-based
Protocol: as §2

Escherichia coli 4 = assay: In vitro MIC, Broth Dilution Method; type: cell-based
Protocol: as §2

[14] = test system: Streptococcus pneumoniae 6301; assay: In vitro MIC, Broth Dilution Method; type: cell-based
Protocol: as §2

Proteus mirabilis 90 = assay: In vitro MIC, Broth Dilution Method; type: cell-based
Protocol: as §2

[15] = test system: Pseudomonas aeruginosa Stone 130; assay: In vitro MIC, Broth Dilution Method; type: cell-based; conditions: STONE130; Broth Dilution Method; Pseudomonas aeruginosa Stone 130; read-out: In Vitro MIC
Protocol: as §2

[16] = Agar Well Diffusion Method, Escherichia coli 1269B
[17] = Agar Well Diffusion Method, Pseudomonas aeruginosa 56, read-out: In Vitro MIC
[18] = Agar Well Diffusion Method, Serratia marcescens SM
[19] = Agar Well Diffusion Method, Klebsiella pneumoniae 369, read-out: In Vitro MIC
[20] = Agar Well Diffusion Method, Enterobacter cloacae 2952B
[21] = Agar Well Diffusion Method, Pseudomonas aeruginosa B
[22] = Agar Well Diffusion Method, Micrococcus luteus PCl
[23] = Agar Well Diffusion Method, Proteus vulgaris 101N
[24] = ATCC8043, Agar Well Diffusion Method, Streptococcus faecium ATCC 8043, read-out: In Vitro MIC
[25] = Agar Well Diffusion Method, Streptococcus aureus 82, read-out: In Vitro MIC
[26] = Broth Dilution Method, Serratia marcescens SM
[27] = ATCC27853, Broth Dilution Method, Pseudomonas aeruginosa ATCC 27853, read-out: In Vitro MIC
[28] = Proteus vulgaris, ATCC6380, read-out: In Vitro MIC
[29] = ATCC29212, Broth Dilution Method, Streptococcus faecalis ATCC 29212, read-out: In Vitro MIC
[30] = Broth Dilution Method, Staphylococcus aureus Smith
[31] = Enterobacter cloacae, 5699, read-out: In Vitro MIC
[32] = Broth Dilution Method, Proteus mirabilis 2, read-out: In Vitro MIC
[33] = BS16, Broth Dilution Method, Citrobacter freundii BS-16, read-out: In Vitro MIC
[34] = Broth Dilution Method, Klebsiella pneumoniae A
[35] = ATCC29213, Broth Dilution Method, Staphylococcus aureus ATCC 29213, read-out: In Vitro MIC
[36] = Broth Dilution Method, Escherichia coli 4, read-out: In Vitro MIC
[37] = Broth Dilution Method, Streptococcus pneumoniae 6301, read-out: In Vitro MIC
[38] = Proteus mirabilis, 2, read-out: In Vitro MIC
[39] = Broth Dilution Method, Proteus mirabilis 90, read-out: In Vitro MIC
[40] = Escherichia coli, 4, read-out: In Vitro MIC
[41] = Broth Dilution Method, Enterobacter cloacae 5699, read-out: In Vitro MIC
[42] = ATCC6380, Broth Dilution Method, Proteus vulgaris ATCC 6380, read-out: In Vitro MIC
[43] = Citrobacter freundii, BS16, read-out: In Vitro MIC

Structure (SMILES) | MIC (Escherichia coli 1269B; [16]) [mg/L] | MIC [1, 17] [mg/L] | MIC (Serratia marcescens SM [2]; [18]) [mg/L] | MIC (Serratia marcescens SM [6]; [26]) [mg/L] | MIC [7, 27] [mg/L] | MIC (Enterobacter cloacae P99) [mg/L] | MIC [8, 28] [mg/L] | MIC (Escherichia coli TEM-1) [mg/L] | MIC [9, 29] [mg/L] | MIC [10, 30] [mg/L] | MIC [11, 31] [mg/L] | MIC [12, 33] [mg/L] | MIC (Klebsiella pneumoniae A; [34]) [mg/L] | MIC [13, 35] [mg/L] | MIC (Escherichia coli 4; [36]) [mg/L] | MIC [14, 37] [mg/L] | MIC (Proteus mirabilis 2; [38]) [mg/L] | MIC (Proteus mirabilis 90; [39]) [mg/L] | MIC (Serratia marcescens SM [6]; Serratia marcescens) [mg/L] | MIC [15] [mg/L] | other results
CCn1cc(C(=O)O)c(=O)c2cc(F)c(N3CCN(C=N[C@@H]4C(=O)N5[C@@H]4SC(C)(C)[C@@H]5C(=O)O)CC3)cc21 [Compound B, [2S-(2α,5α,6β)]-7-[4-[[[2-(Carboxy)-3,3-dimethyl-7-oxo-4-thia-1-azabicyclo[3.2.0]hept-6-yl]imino]methyl]-1-piperazinyl]-1-ethyl-6-fluoro-1,4-dihydro-4-oxo-3-quinolinecarboxylic acid monosodium salt] | 0.98 | 7.8 | 62.5 | 0.125 | 8 | 0.063 | 0.063 | 0.031 | 2 | 0.25 | 0.063 | 0.25 | 0.125 | – | – | – | – | – | – | – | MIC [3, 19]: 3.9 mg/L; MIC [4, 20]: 15.6 mg/L; MIC (Pseudomonas aeruginosa B; [21]): 7.8 mg/L; MIC (Micrococcus luteus PCl; [22]): 31.3 mg/L; MIC (Proteus vulgaris 101N; [23]): 1.95 mg/L; MIC [5, 24]: 62.5 mg/L; MIC (Streptococcus 82; [25]): 7.8 mg/L; MIC (Proteus mirabilis 2; [32]): 0.125 mg/L
CCn1cc(C(=O)O)c(=O)c2cc(F)c(N3CCN(C=N[C@@H]4C(=O)N5C(C(=O)O)=C(C)CS[C@H]45)CC3)cc21 [Compound C, 6R-[6α,7β(E(]]-7-[4-[[(2-Carboxy-3-methyl-8-oxo-5-thia-1-azabicyclo[4.2.0]oct-2-en-7-yl)imino]-methyl]-1-piperazinyl]-1-ethyl-6-fluoro-1,4-dihydro-4-oxo-3-quinolinecarboxylic acid disodium salt] | 3.9 | 3.9 | 3.9 | 0.125 | 2 | 0.125 | 0.063 | 0.063 | 8 | – | 0.063 | 0.25 | 0.125 | 1 | 0.125 | 8 | 0.063 | 0.25 | – | – | MIC [3, 19]: 3.9 mg/L; MIC [4, 20]: 7.8 mg/L; MIC (Pseudomonas aeruginosa B; [21]): 3.9 mg/L; MIC (Micrococcus luteus PCl; [22]): 250 mg/L; MIC (Proteus vulgaris 101N; [23]): 0.98 mg/L; MIC [5, 24]: 500 mg/L; MIC (Streptococcus 82; [25]): 15.6 mg/L
CCn1cc(C(=O)[O-])c(=O)c2cc(F)c(N3CCN(C=N[C@@H]4C(=O)N(S(=O)(=O)[O-])[C@@H]4COC(N)=O)CC3)cc21.[Na+].[Na+] [Compound F, (2S-cis)-7-[4-[[[2-[[(Aminocarbonyl)oxy]methyl]-4-oxo-1-sulfo-3-azetidinyl]imino]methyl]-1-piperazinyl]-1-ethyl-6-fluoro-1,4-dihydro-4-oxo-3-quinolinecarboxylic acid disodium salt] | – | – | – | – | – | 0.125 | 0.031 | 0.063 | – | – | 0.063 | – | – | – | – | – | 0.063 | – | 0.063 | – | MIC (Escherichia coli 1269B; Escherichia coli, 1269B): 7.8 mg/L; MIC ([1]; Pseudomonas aeruginosa, 56, read-out: In Vitro MIC): 7.8 mg/L; MIC (Serratia marcescens SM [2]; Serratia marcescens): 62.5 mg/L; MIC ([3]; Klebsiella pneumoniae, 369, read-out: In Vitro MIC): 3.9 mg/L; MIC ([4]; Enterobacter cloacae, 2952B): 31.3 mg/L; MIC (Pseudomonas aeruginosa B; Pseudomonas aeruginosa): 7.8 mg/L; MIC (Micrococcus luteus PCl; Micrococcus luteus): 500 mg/L; MIC (Proteus vulgaris 101N; Proteus vulgaris, 101N): 1.95 mg/L; MIC ([5]; ATCC8043, read-out: In Vitro MIC): 500 mg/L; MIC (Streptococcus 82; Streptococcus, 82, read-out: In Vitro MIC): 31.3 mg/L; MIC ([7]; Pseudomonas aeruginosa, ATCC27853, read-out: In Vitro MIC): 2 mg/L; MIC ([13]; Staphylococcus aureus, ATCC29213, read-out: In Vitro MIC): 2 mg/L; MIC (Escherichia coli 4; [40]): 0.125 mg/L; MIC ([9]; ATCC29212, read-out: In Vitro MIC): 4 mg/L; MIC ([14]; Streptococcus pneumoniae, 6301, read-out: In Vitro MIC): 8 mg/L; MIC (Klebsiella pneumoniae A; Klebsiella pneumoniae): 0.125 mg/L
CCn1cc(C(=O)O)c(=O)c2cc(F)c(N3CCN(C=N[C@@H]4C(=O)N5C(C(=O)O)=C(COC(C)=O)CS[C@H]45)CC3)cc21 [Compound I, [6R-[6α,7β(Z)]]-7-[4-[[[3-[Acetyloxy)methyl]-2-carboxylic-8-oxo-5-thia-1-azabicyclo[4..0]oct-2-en-7-yl]imino]methyl]-1-piperazinyl]-1-ethyl-6-fluoro-1,4-dihydro-4-oxo-3-quinolinecarboxylic acid monosodium salt] | – | – | – | 0.125 | 8 | 0.063 | 0.063 | 0.063 | 4 | 0.25 | – | 0.25 | 0.125 | 2 | 0.125 | 0.5 | 0.063 | 0.5 | – | 1 | MIC [11, 41]: 0.125 mg/L
CCn1cc(C(=O)O)c(=O)c2cc(F)c(N3CCN(C=N[C@@H]4C(=O)N5C(C(=O)O)=C(CSc6nc(=O)c(=O)[nH]n6C)CS[C@H]45)CC3)cc21 [Compound J, [6R-[6α,7β(Z)]]-7-[4-[[[2-Carboxy-3-[[(1,2,5,6-tetrahydro-2-methyl-5,6-dioxo-1,2,4-triazin-3-yl)thio]methyl]-8-oxo-5-thia-1-azabicyclo[4.2.0]-oct-2-en-7-yl]-imino]methyl]-1-piperazinyl]-ethyl-6-fluoro-1,4-dihydro-4-oxo-3-quinolinecarboxylic acid disodium salt] | – | – | – | – | 16 | 0.5 | – | 0.25 | 0.25 | – | – | – | 0.5 | 2 | – | 2 | – | – | 0.5 | 8 | MIC [8, 42]: 0.125 mg/L; MIC (Escherichia coli 4; [40]): 0.25 mg/L; MIC ([10]; Staphylococcus aureus): 1 mg/L; MIC [11, 41]: 0.25 mg/L; MIC (Proteus mirabilis 2; [32]): 0.5 mg/L; MIC [12, 43]: 0.5 mg/L; MIC (Proteus mirabilis 90; Proteus mirabilis, 90, read-out: In Vitro MIC): 1 mg/L
CCn1cc(C(=O)O)c(=O)c2cc(F)c(N3CCCN(C=N[C@@H]4C(=O)N5[C@@H]4SC(C)(C)[C@@H]5C(=O)O)CC3)nc21 [Compound K, [2S-(2α,5α,6β)]-7-[4-[[2-Carboxy-3,3-dimethyl-7-oxo-4-thia-1-azabicyclo[3.2.0]hept-6-yl)-imino]methyl]hexahydro-1H, 1,4-diazepin-1-yl]-1-ethyl-6-fluoro-1,4-dihydro-4-oxo-1,8-naphthyridine--carboxylic acid disodium salt] | – | – | – | – | – | 1 | – | 1 | 128 | 2 | 4 | – | 2 | 16 | 2 | 2 | 4 | 8 | 4 | 8 | MIC [8, 42]: 2 mg/L; MIC [12, 43]: 4 mg/L

From patent US5159077A, “Penam antibacterial compounds” (Hoffmann-La Roche Inc., priority 1989, dated 1992)
